Assay results as given in PubChem BioAssay (NCI).
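The compound was tested at five concentrations on cells cultured in 96-well plates, with a 48-hour exposure period. TGI marks complete inhibition of growth.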

How the values were obtained:
Test in all cases: NCI-60 cell line screen, 48 h
[1] = system: A549 NSCLC
[2] = system: M14 melanoma
[3] = system: MALME-3M melanoma
[4] = system: MOLT-4 leukemia
[5] = system: OVCAR-4 ovarian
[6] = system: SK-MEL-28 melanoma
[7] = system: OVCAR-8 ovarian
[8] = system: COLO 205 colon
[9] = system: EKVX NSCLC
[10] = system: K-562 leukemia
[11] = system: SF-539 CNS
[12] = system: UACC-257 melanoma
[13] = system: UACC-62 melanoma
[14] = system: CCRF-CEM leukemia
[15] = system: TK-10 renal
[16] = system: HS 578T breast
[17] = system: NCI/ADR-RES ovarian
[18] = system: HOP-62 NSCLC
[19] = system: DU-145 prostate
[20] = system: T-47D breast

| SMILES | TGI [1] [µM] | TGI [2] [µM] | TGI [3] [µM] | TGI [4] [µM] | TGI [5] [µM] | TGI [6] [µM] | TGI [7] [µM] | TGI [8] [µM] | TGI [9] [µM] | TGI [10] [µM] | TGI [11] [µM] | TGI [12] [µM] | TGI [13] [µM] | TGI [14] [µM] | TGI [15] [µM] | TGI [16] [µM] | TGI [17] [µM] | TGI [18] [µM] | TGI [19] [µM] | TGI [20] [µM] |
| --- | --- | --- | --- | --- | --- | --- | --- | --- | --- | --- | --- | --- | --- | --- | --- | --- | --- | --- | --- | --- |
| CCCCCCCCC(O)c1ccc(/C=C\C(O)CCCC(=O)O)s1 (stereo unspecified) | > 100 | > 100 | > 100 | > 100 | > 100 | > 100 | > 100 | > 100 | > 100 | > 100 | > 100 | > 100 | > 100 | > 100 | > 100 |  |  |  |  |  |
| COC(=O)C(=O)C(C(=O)C(=O)Nc1ccc(C)cc1C)c1nc2ccc(Cl)cc2[nH]c1=O (stereo unspecified) | > 100 | > 100 |  | > 100 | > 100 | > 100 | > 100 | > 100 | > 100 |  | > 100 | > 100 | > 100 | > 100 | > 100 | > 100 | > 100 | > 100 | > 100 |  |
| Cc1ccc(-c2cc(-c3ccccc3)c(C#N)c(=O)[nH]2)cc1 | > 100 | > 100 | > 100 | > 100 | > 100 | > 100 | > 100 | > 100 | > 100 | > 100 | > 100 | > 100 | > 100 | > 100 | > 100 |  |  | > 100 |  |  |
| CCOC(=O)C1=C(OC(OCC)C(CC)[Se]c2ccccc2)CCC1 (stereo unspecified) | > 100 | 31.6 | 56.7 | 73.5 | 28 | 92.8 | > 100 | > 100 | 91.2 | > 100 | 37.4 | 77.4 | 81.1 | 36.2 | > 100 |  |  | > 100 |  |  |
| COc1cc([C@@H]2c3cc4c(cc3[C@@H](NCc3cccc(C#N)c3)C3COC(=O)[C@@H]32)OCO4)cc(OC)c1O (stereo partly specified) | 1.91 | 6.22 | 9.58 | 1.43 | > 100 | 46.1 | 4.56 | 21.4 | 6.58 | 25.4 | 1.94 | > 100 | 2.93 | > 100 | 6.84 |  |  | 1.79 |  |  |
| O=[N+]([O-])c1cccc(Nc2nc(Cl)nc(Cl)n2)c1 | > 100 | > 100 | > 100 | > 100 | > 100 | > 100 | > 100 | > 100 | > 100 | > 100 | > 100 | > 100 | > 100 | > 100 |  |  |  | > 100 |  |  |
| COc1ccccc1N/C(SCc1ccccc1)=C(/C(Cl)=C(Cl)Cl)[N+](=O)[O-] | > 100 | > 100 | 38.7 | > 100 | 47.7 | 28.5 | 27.4 | 33.7 | > 100 | 57.9 | 31.1 | > 100 | > 100 | > 100 |  |  | 78.8 | > 100 | > 100 | 65.6 |
| COC(=O)/C=C(\C)CCC1SC1(C)C (stereo unspecified) | > 100 | > 100 | > 100 | > 100 | > 100 | > 100 | > 100 | > 100 | > 100 | > 100 | > 100 | > 100 | > 100 | > 100 | > 100 |  |  | > 100 |  |  |
| O=[N+]1[C@H](c2ccccc2)[C@H](c2ccccc2)N1[O-] | 41.1 | 29.6 | 32 | 55.2 | 59.2 | 30.5 | 32.7 | 37.9 | 33.8 | > 100 | 32.7 | 26.3 | 32.3 | 36.3 | 30.9 | > 100 | 35.5 | 40.7 | 30.1 |  |
| CCOC(=O)CCC(NC(=O)c1ccc(NC(OC)c2nc3cc(C(F)(F)F)ccc3nc2-c2ccccc2)cc1)C(=O)OCC (stereo unspecified) | 39.4 | 29 | 31.3 | > 24.1 | 55.1 | 31.6 | 29.6 | 35.6 | 33.6 | > 26.6 | 26.1 | 32.2 | 34.2 | > 21.7 | 38.4 |  |  | 31.2 |  |  |
| COc1cc(OC)c2c(=O)c3cccc(C)c3n(C)c2c1 | > 100 | > 100 | > 100 | > 100 | > 100 | > 100 | > 100 | > 100 | > 100 | 59.4 | > 100 | > 100 | > 100 | > 100 | > 100 | > 100 | > 100 | > 100 | > 100 |  |
| CN(C)CCN1CCc2c([nH]c3ccccc23)C1c1cccnc1 (stereo unspecified) | > 100 | > 100 |  | > 100 | > 100 | > 100 | > 100 |  | > 100 | > 100 | > 100 | > 100 | > 100 | > 100 | > 100 |  |  | > 100 |  |  |
| Cc1c(/C=N/NC(=S)N2CCCCC2)c(=O)n(-c2ccccc2)n1C | > 100 | > 100 | > 100 | > 100 |  | > 100 | > 100 | > 100 | > 100 | > 100 | > 100 | > 100 | > 100 | > 100 | > 100 | > 100 | > 100 | > 100 | > 100 |  |
| O=C(O)CSc1n[nH]c(-c2ccco2)n1 | > 100 | > 100 | > 100 | > 100 | > 100 | > 100 | > 100 | > 100 | > 100 | > 100 | > 100 | > 100 | > 100 | > 100 | > 100 |  |  | > 100 |  |  |
